{"source": "PubChem BioAssay AID1259409", "about": "(Chemical Carcinogenesis Research Information System (CCRIS), 2018)", "origin": "cited, not measured here", "system": "rodent chemically induced tumor inhibition, incidence and multiplicity", "test": "CCRIS tumor inhibitor studies", "conditions": "Promoter: NONE USED"}
{"smiles": "Clc1ccccc1C(c1ccccc1)(c1ccccc1)n1ccnc1", "values": [{"measurement": "tumour outcome (control, treated, inhibition, significance)", "setting": "Carcinogen: 3-METHYLCHOLANTHRENE, 56-49-5, Dose [Inhibitor]: 0, 2.9 UMOL IN 0.1 ML ACETONE 1 HR PRIOR TO CARCINOGEN DOSE 2/WK FOR 16 WK (STUDY DURATION: 16 WK), Route [Inhibitor]: DERMAL, Species: MOUSE, Strain/Sex: BALB/FEMALE, Target Tissue: Type of Lesion: SKIN: TUMORS, Dose [Carcinogen]: 1.8 UMOL IN 0.2 ML ACETONE 2/WK FOR 16 WK", "result": "100%, 70%, 30%, p<0.05"}]}
{"smiles": "O.O.O.O.O.[Cd+2].[Cd+2].[Cl-].[Cl-].[Cl-].[Cl-]", "values": [{"measurement": "tumour outcome (control, treated, inhibition, significance)", "setting": "Carcinogen: NITROSODIETHYLAMINE, 55-18-5, Dose [Inhibitor]: 0, 1000 PPM IN DRINKING WATER BEGINNING 2 WK POST CARCINOGEN DOSE AND CONTINUING FOR DURATION OF STUDY (STUDY DURATION:, Route [Inhibitor]: ORAL, Species: MOUSE, Strain/Sex: B6C3F1/MALE, Target Tissue: Type of Lesion: LIVER: TUMOR, Dose [Carcinogen]: 5 MG/ML IN TRICAPRYLIN ONCE AT 5 WK OF AGE", "result": "22/25 (88%), 2/25 (8%), 91%, p<0.05"}, {"measurement": "tumour outcome (control, treated, inhibition, significance)", "setting": "Carcinogen: NITROSODIETHYLAMINE, 55-18-5, Dose [Inhibitor]: 0, 1000 PPM IN DRINKING WATER BEGINNING 2 WK POST CARCINOGEN DOSE AND CONTINUING FOR DURATION OF STUDY (STUDY DURATION:, Route [Inhibitor]: ORAL, Species: MOUSE, Strain/Sex: B6C3F1/MALE, Target Tissue: Type of Lesion: LUNG: TUMOR, Dose [Carcinogen]: 5 MG/ML IN TRICAPRYLIN ONCE AT 5 WK OF AGE", "result": "100%, 94%, 6%, not significant"}, {"measurement": "tumour outcome (control, treated, inhibition, significance)", "setting": "Carcinogen: NITROSODIETHYLAMINE, 55-18-5, Dose [Inhibitor]: 0, 1000 PPM IN DRINKING WATER BEGINNING 4 WK POST CARCINOGEN DOSE AND CONTINUING FOR DURATION OF STUDY (STUDY DURATION:, Route [Inhibitor]: ORAL, Species: MOUSE, Strain/Sex: B6C3F1/MALE, Target Tissue: Type of Lesion: LIVER: TUMOR, Dose [Carcinogen]: 5 MG/ML IN TRICAPRYLIN ONCE AT 5 WK OF AGE", "result": "22/25 (88%), 1/25 (4%), 95%, p<0.05"}, {"measurement": "tumour outcome (control, treated, inhibition, significance)", "setting": "Carcinogen: NITROSODIETHYLAMINE, 55-18-5, Dose [Inhibitor]: 0, 1000 PPM IN DRINKING WATER BEGINNING 4 WK POST CARCINOGEN DOSE AND CONTINUING FOR DURATION OF STUDY (STUDY DURATION:, Route [Inhibitor]: ORAL, Species: MOUSE, Strain/Sex: B6C3F1/MALE, Target Tissue: Type of Lesion: LUNG: TUMOR, Dose [Carcinogen]: 5 MG/ML IN TRICAPRYLIN ONCE AT 5 WK OF AGE", "result": "100%, 94%, 6%, not significant"}, {"measurement": "tumour outcome (control, treated, inhibition, significance)", "setting": "Carcinogen: NITROSODIETHYLAMINE, 55-18-5, Dose [Inhibitor]: 0, 1000 PPM IN DRINKING WATER BEGINNING 8 WK POST CARCINOGEN DOSE AND CONTINUING FOR DURATION OF STUDY (STUDY DURATION:, Route [Inhibitor]: ORAL, Species: MOUSE, Strain/Sex: B6C3F1/MALE, Target Tissue: Type of Lesion: LIVER: TUMOR, Dose [Carcinogen]: 5 MG/ML IN TRICAPRYLIN ONCE AT 5 WK OF AGE", "result": "22/25 (88%), 1/25 (4%), 95%, p<0.05"}, {"measurement": "tumour outcome (control, treated, inhibition, significance)", "setting": "Carcinogen: NITROSODIETHYLAMINE, 55-18-5, Dose [Inhibitor]: 0, 1000 PPM IN DRINKING WATER BEGINNING 8 WK POST CARCINOGEN DOSE AND CONTINUING FOR DURATION OF STUDY (STUDY DURATION:, Route [Inhibitor]: ORAL, Species: MOUSE, Strain/Sex: B6C3F1/MALE, Target Tissue: Type of Lesion: LUNG: TUMOR, Dose [Carcinogen]: 5 MG/ML IN TRICAPRYLIN ONCE AT 5 WK OF AGE", "result": "100%, 89%, 11%, not significant"}, {"measurement": "tumour outcome (control, treated, inhibition, significance)", "setting": "Carcinogen: NITROSODIETHYLAMINE, 55-18-5, Dose [Inhibitor]: 0, 1000 PPM IN DRINKING WATER BEGINNING 16 WK POST CARCINOGEN DOSE AND CONTINUING FOR DURATION OF STUDY (STUDY DURATION:, Route [Inhibitor]: ORAL, Species: MOUSE, Strain/Sex: B6C3F1/MALE, Target Tissue: Type of Lesion: LIVER: TUMOR, Dose [Carcinogen]: 5 MG/ML IN TRICAPRYLIN ONCE AT 5 WK OF AGE", "result": "22/25 (88%), 2/25 (8%), 91%, p<0.05"}, {"measurement": "tumour outcome (control, treated, inhibition, significance)", "setting": "Carcinogen: NITROSODIETHYLAMINE, 55-18-5, Dose [Inhibitor]: 0, 1000 PPM IN DRINKING WATER BEGINNING 16 WK POST CARCINOGEN DOSE AND CONTINUING FOR DURATION OF STUDY (STUDY DURATION:, Route [Inhibitor]: ORAL, Species: MOUSE, Strain/Sex: B6C3F1/MALE, Target Tissue: Type of Lesion: LUNG: TUMOR, Dose [Carcinogen]: 5 MG/ML IN TRICAPRYLIN ONCE AT 5 WK OF AGE", "result": "100%, 72%, 28%, p<0.05"}, {"measurement": "tumour outcome (control, treated, inhibition, significance)", "setting": "Carcinogen: NITROSODIETHYLAMINE, 55-18-5, Dose [Inhibitor]: 0, 1000 PPM IN DRINKING WATER BEGINNING 32 WK POST CARCINOGEN DOSE AND CONTINUING FOR DURATION OF STUDY (STUDY DURATION:, Route [Inhibitor]: ORAL, Species: MOUSE, Strain/Sex: B6C3F1/MALE, Target Tissue: Type of Lesion: LIVER: TUMOR, Dose [Carcinogen]: 5 MG/ML IN TRICAPRYLIN ONCE AT 5 WK OF AGE", "result": "22/25 (88%), 6/24 (25%), 72%, p<0.05"}, {"measurement": "tumour outcome (control, treated, inhibition, significance)", "setting": "Carcinogen: NITROSODIETHYLAMINE, 55-18-5, Dose [Inhibitor]: 0, 1000 PPM IN DRINKING WATER BEGINNING 32 WK POST CARCINOGEN DOSE AND CONTINUING FOR DURATION OF STUDY (STUDY DURATION:, Route [Inhibitor]: ORAL, Species: MOUSE, Strain/Sex: B6C3F1/MALE, Target Tissue: Type of Lesion: LUNG: TUMOR, Dose [Carcinogen]: 5 MG/ML IN TRICAPRYLIN ONCE AT 5 WK OF AGE", "result": "100%, 96%, 4%, not significant"}]}
{"smiles": "Cc1ccc(O)c(O)c1", "values": [{"measurement": "tumour outcome (control, treated, inhibition, significance)", "setting": "Carcinogen: N-NITROSOBIS(2-HYDROXYPROPYL)AMINE, 53609-64-6, Dose [Inhibitor]: 0, 1.5% IN DIET FOR 30 WK BEGINNING POST CARCINOGEN TREATMENT (STUDY DURATION: 35 WK), Route [Inhibitor]: ORAL, Species: HAMSTER, Strain/Sex: SYRIAN/MALE, Target Tissue: Type of Lesion: PANCREAS: ADENOCARCINOMA, Dose [Carcinogen]: 500 MG/KG 1/WK FOR 5 WK", "result": "8/17 (47%), 9/19 (47%), 0%, not significant"}]}
{"smiles": "C[N+](C)(C)CC(=O)O", "values": [{"measurement": "tumour outcome (control, treated, inhibition, significance)", "setting": "Carcinogen: ETHIONINE, 13073-35-3, Dose [Inhibitor]: 5.2 MMOL/100 G DIET DAILY FOR 8 MO ADMINISTERED SIMULTANEOUSLY WITH CARCINOGEN FOLLOWED BY 4 MO ON BASAL DIET (STUDY DUR, Route [Inhibitor]: ORAL, Species: RAT, Strain/Sex: WISTAR/MALE, Target Tissue: Type of Lesion: LIVER: CARCINOMA, Dose [Carcinogen]: 0.25% OF DIET DAILY FOR 8 MO", "result": "8/8 (100%), 1/10 (10%), 90%, not calculated"}]}
